Peptide text beside a SMILES is read from it. * marks the point of attachment. Cbz = O=C(OCc1ccccc1)*
Columns and labels:
Akt = assay: Western blot of Hsp90 client protein Akt in Panc-1 cells; type: cell-based, human; details: for level of Akt protein: 10 μM proteasome inhibitor, 24 h
Method: (§1) The levels of Akt and Cdk4, two well-known Hsp90 clients, were measured. Celastrol decreased the protein levels of Akt and Cdk4 in a concentration- and time-dependent manner.
(§2) Western Blot. The general procedure for the Western blot analysis was briefly described as follows. After drug treatment, cells were washed twice with ice-cold phosphate-buffered saline (PBS), scraped into lysis buffer (20 mM Tris, pH 7.5, 1% Nonidet P-40, 150 mM NaCl, 5 mM EDTA, 1 mM Na3VO4) supplemented with a protease inhibitor mixture (Sigma, added at a 1:100 dilution), and incubated on ice for 20 min. The lysate was then centrifuged at 14,000×g for 10 min. Equal amounts of total protein were subjected to SDS-PAGE and transferred onto nitrocellulose membranes and probed with appropriate antibodies.

Cdk4 = assay: Western blot of Hsp90 client protein Cdk4 in Panc-1 cells; type: cell-based, human; details: for level of Cdk4 protein: 10 μM proteasome inhibitor, 24 h
Method: as §1, §2

[1] = tested on: RIP1-Tag2 transgenic pancreatic cancer mouse model; assay: RIP1-Tag2 transgenic pancreatic cancer mouse model; type: in vivo, mice
Text: To further evaluate the anticancer efficacy of celastrol against pancreatic cancer, the inventors utilized celastrol to inhibit tumor growth in a RIP1-Tag2 transgenic pancreatic cancer mouse model. In this mouse model, hyperplastic islets begin to appear by 3-4 weeks of age, and solid tumors emerge in pancreas at about 8-9 weeks. The cancer will metastasized into other sites such as mesenterium in the peritoneal cavity from 10-12 weeks.
RIP1-Tag2 Transgenic Mouse Model. RIP1-Tag2 transgenic mice used contained the insulin promoter-driven SV40 T-antigen and produced spontaneous multifold and multistage pancreatic islet tumors. RIP1-Tag2 positive mice were identified by PCR analysis of genomic DNA from tail biopsy. […] After 4 weeks of injection, mice of each group were sacrificed by CO2 and tumors were isolated and saved. The remaining mice were kept to calculate the survival rate.

Panc-1 cells = assay: MTS assay; details: read-out: IC50 (cytotoxicity, MTS), 24 h
Method: MTS Assay. The human Panc-1 cells were seeded in 96-well plates at a density of 3000-5000 cells per well. […] Number of viable cells was assessed by MTS assay after 24 h. The IC50 values for cytotoxicity were calculated with WinNonlin software (Pharsight, Mountain View, Calif.).

Hsp90 = assay: Western blot of Hsp90 protein levels; type: cell-based, human
Method: as §2

Panc-1 xenograft tumor = assay: Panc-1 xenograft mouse model; type: in vivo, mice; details: 3 mg/kg i.p.; for inhibition of tumor growth: after the last injection
Method: After the last injection, celastrol inhibited 80% of tumor growth (p<0.001) (FIG. 6A).
Xenograft Mouse Model. 4 to 6-week old nu/nu athymic female mice were obtained from Charles River Laboratories (Charles River, Wilmington, Mass.). The human Panc-1 cells (5-10×10^6) were mixed with reconstituted basement membrane (Collaborative Research, Bedford, Mass.) and implanted to the right and left flanks of the mice. Tumor volumes were calculated with the formula: width^2×length/2. When tumors reached 100 mm^3, animals were randomized into different groups for treatment (n=6/group).
Then, the dosing schedule was changed to one injection per three days. Tumor sizes and body weights were measured twice a week.

[2] = 3 mg/kg i.p. once every 3 days for four weeks, at 12th week

Row | SMILES | level of Akt protein (Akt) | level of Cdk4 protein (Cdk4) | survival increase over control ([1]; 3 mg/kg i.p.) | decrease of tumors in pancreas compared to the control group [1, 2] | IC50 (Panc-1 cells) | also measured
1 | CC(=O)N[C@@H](CSC(=O)[C@]1([C@@H](O)C(C)C)NC(=O)[C@H](C)[C@@H]1O)C(=O)O [lactacystin] | did not change the levels | did not change the levels | – | – | – | –
2 | COC1=C2C[C@@H](C)C[C@H](OC)[C@H](O)[C@@H](C)/C=C(\C)[C@H](OC(N)=O)[C@@H](OC)/C=C\C=C(/C)C(=O)NC(=CC1=O)C2=O [geldanamycin, reference compound] | – | – | 6 days | 13% | 8 µM | decrease of metastatic tumors in mesenterium compared to the control group [1, 2]: 50%
3 | CC(C)C[C@@H](C=O)NC(=O)[C@H](CC(C)C)NC(=O)[C@H](CC(C)C)NC(=O)OCc1ccccc1 [MG132] (Cbz-Leu-Leu-Leu-aldehyde) | did not change the levels | did not change the levels | – | – | – | –
4 | CC1=C(O)C(=O)C=C2C1=CC=C1[C@@]2(C)CC[C@@]2(C)[C@@H]3C[C@](C)(C(=O)O)CC[C@]3(C)CC[C@]12C [celastrol, (9b,13a,14b,20a)-3-Hydroxy-9,13-dimethyl-2-oxo-24,25,26-trinoroleana-1(10),3,5,7-tertraen-29-oic acid] | – | – | 12 days | 30% | 3 µM | effect on Hsp90 protein levels (Hsp90): no effect; decrease of Akt protein level (Akt; 5 μM, 24-h treatment): 80%; inhibition of tumor growth (Panc-1 xenograft tumor): 80%; inhibition of tumor growth (Panc-1 xenograft tumor; listed as Celastrol): more than 80%; weight loss in mice (Panc-1 xenograft tumor; xenograft mice): 5%; median survival time ([1]; 3 mg/kg i.p.): 96 days; weight loss ([1]; 3 mg/kg i.p., RIP1-Tag2 mice): about 10%; decrease of Cdk4 protein level (Cdk4; 5 μM, 24-h treatment): 70%
